Consider 18 compounds from patent US11208400B2, “Substituted 6-(1H-pyrazol-1-yl)pyrimidin-4-amine derivatives and uses thereof” (Bayer Aktiengesellschaft, priority 2016, dated 2021).

Each structure is given as a SMILES string.

The target of the test is T1, human Npt2a (Homo sapiens, UniProt Q06495).
T1 construct: expressed in transfected cells
T1 sequence (Q06495 1-639): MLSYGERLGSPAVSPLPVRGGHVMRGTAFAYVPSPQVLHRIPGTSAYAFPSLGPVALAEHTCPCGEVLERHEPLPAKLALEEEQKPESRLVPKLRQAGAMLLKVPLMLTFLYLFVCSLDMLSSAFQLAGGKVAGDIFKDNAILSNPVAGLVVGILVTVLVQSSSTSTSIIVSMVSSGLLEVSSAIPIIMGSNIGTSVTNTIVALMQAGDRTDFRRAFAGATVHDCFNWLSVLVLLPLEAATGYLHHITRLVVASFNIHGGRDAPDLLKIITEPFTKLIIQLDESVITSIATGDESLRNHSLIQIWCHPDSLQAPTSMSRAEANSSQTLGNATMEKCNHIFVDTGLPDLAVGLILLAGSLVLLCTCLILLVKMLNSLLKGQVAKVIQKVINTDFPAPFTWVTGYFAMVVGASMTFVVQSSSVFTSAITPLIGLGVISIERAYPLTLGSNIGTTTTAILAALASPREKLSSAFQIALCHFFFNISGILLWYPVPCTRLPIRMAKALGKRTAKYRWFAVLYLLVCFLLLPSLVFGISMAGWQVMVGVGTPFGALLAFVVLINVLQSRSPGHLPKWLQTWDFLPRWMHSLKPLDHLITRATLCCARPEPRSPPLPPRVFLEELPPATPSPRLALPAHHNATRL
As to the kind of experiment: Npt2a activity cell based assay, membrane potential dye, CHO T-REx hNpt2a cells. Particulars: doxycycline-induced, depolarization by sodium phosphate influx, average or median values if tested more than once. How it is done:
For measuring Npt2a activity in a cell based assay, a stable CHO cell line with inducible Npt2a expression was generated. Therefore, CHO T-Rex cells (life technologies cat. R718-07) were stably transfected with doxycycline-inducible human NPT2a (pcDNA5TO-hNpt2a). The obtained CHO T-REx hNpt2a cells were routinely cultured in Dulbecco's MEM/F12 (4.5 g/l Glucose, Gibco cat. 21331-020; 500 mL) supplemented with 10 ml Glutamax 100×, Sodium pyruvate (7 mL of 100 mM solution), HEPES (10 mL of 1 M solution), Sodium bicarbonate (10 mL of 7.5% solution), 10% Fetal Bovine Serum Tetracycline free (Clontech cat. 631106, 500 ml), Penicillin-Streptomycin (5 mL of 100× Solution), Blasticidin 10 μg/mL and 400 μg/mL Hygromycin.
Activity of Npt2a was detected by following depolarization of cellular membrane potential by influx of sodium phosphate using fluorescent membrane potential dye kit BLUE (Molecular devices cat. R8034). For Npt2a activity measurements, CHO T-Rex hNpt2a cells were seeded into 1536 well microtiter plates (GREINER Bio-One cat. 782092) with 750 cells/well in 7 μL/w of complete medium (2% Tetracycline-free FBS, 2% Poly-D-Lysine) without selective agents+Doxycycline 0.5 μg/mL to induce Npt2a gene expression, and grown for 24 h at 37° C., 5% carbon dioxide.
On the day of experiment a 1×MPdye Loading Solution was freshly prepared by re-suspending 15 mg of Blue MPdye powder in 10 mL of NHE buffer sodium-free (140 mM N-Methyl-D-glucamine, 5.4 mM KCl, 1 mM CaCl2, 11 mM D(±)-Glucose water free, 1.2 mM MgCl2, 10 mM HEPES; pH 7.4 (adjusted with hydrochloric acid); sterile filtered). 5 μl medium was removed from plates by robotic manipulation, then 5 μL/well of sodium-free NHE buffer was added. After incubation for 2 min, this washing step was repeated once. Then, 5 μL/w of buffer was removed from plates and cells were incubated for 5 min at room temperature with 5 μL/w of MPdye Loading Solution (1× in Sodium-free NHE Buffer). Test compounds were added to the cells at final test concentrations between 50 μM and 1 nM (0.6 μL/well, final DMSO 0.6%, prepared in MPDye Loading Solution) and incubated for 5 min at room temperature.
Plates were analyzed with an in house CCD camera device using a λexc 510-545 nm/λem 565-625 nm filter. Fluorescence was detected for 15 sec (background measurement M1). Activity of Npt2a was triggered by addition of 2 μL/well of 30 mM Na+ and 1 mM phosphate (prepared in a mixture of NHE Buffer Na+ free and NHE Buffer 140 mM Na+). Fluorescence was followed for 2-3 min (depolarization measurement M2). Data was normalized to cell number and dye loading efficiency by calculating M2/M1. This quotient was plotted against test compound concentration. Graph Pad Prism or equivalent in house software was used to create sigmoidal dose-response curves (variable slope) and determine IC50 values.
By IC50 is commonly meant the concentration that inhibits the measured activity by half. Turning to `CCc1c(Nc2cc(-n3nc(C)c(C(=O)N4CC(C)OC(C)C4)c3C)ncn2)nn(C)c1-c1ccc(F)cc1` (racemic) [Example 74, (±)-[syn-2,6-dimethylmorpholin-4-yl][1-(6-{[4-ethyl-5-(4-fluorophenyl)-1-methyl-1H-pyrazol-3-yl]amino}pyrimidin-4-yl)-3,5-dimethyl-1H-pyrazol-4-yl]methanone], 1260 nM corresponded to half-maximal inhibition (IC50). Next, `CCc1c(Nc2cc(-n3nc(C)c(C(=O)N4CCCC4C)c3C)ncn2)nn(C)c1-c1ccc(F)cc1` (racemic) [Example 76, (±)-[1-(6-{[4-ethyl-5-(4-fluorophenyl)-1-methyl-1H-pyrazol-3-yl]amino}pyrimidin-4-yl)-3,5-dimethyl-1H-pyrazol-4-yl](2-methylpyrrolidin-1-yl)methanone]: 190 nM; `CCc1c(Nc2cc(-n3nc(C)c4c3CCCC4(C)O)ncn2)nn(C)c1-c1ccc(F)cc1` (racemic) [Example 134, (±)-1-(6-{[4-ethyl-5-(4-fluorophenyl)-1-methyl-1H-pyrazol-3-yl]amino}pyrimidin-4-yl)-3,4-dimethyl-4,5,6,7-tetrahydro-1H-indazol-4-ol (Racemate)]: 180 nM.

As for `CCc1c(Nc2cc(-n3nc(C)c4c3CCC4(C)O)ncn2)nn(C)c1-c1ccc(F)cc1` (racemic) [Example 146, (rac)-1-(6-{[4-ethyl-5-(4-fluorophenyl)-1-methyl-1H-pyrazol-3-yl]amino}pyrimidin-4-yl)-3,4-dimethyl-1,4,5,6-tetrahydrocyclopenta[c]pyrazol-4-ol], the IC50 was 126 nM. This IC50 and that of the compound before are within 1.5-fold of each other. Next, `Cc1nn(-c2cc(Nc3c(C)c(-c4ccc(C#N)cc4)nn3C)ncn2)c2c1C(C)(O)CC2` (racemic) [Example 227, 4-[5-({6-[(±)-4-hydroxy-3,4-dimethyl-5,6-dihydrocyclopenta[c]pyrazol-1(4H)-yl]pyrimidin-4-yl}amino)-1,4-dimethyl-1H-pyrazol-3-yl]benzonitrile]: 16 nM; `Cc1nn(-c2cc(Nc3c(C)c(-c4ccc(F)cc4)nn3CC3CC3)ncn2)c(C)c1C(C)O` (racemic) [Example 249, (±)-1-[1-(6-{[1-(cyclopropylmethyl)-3-(4-fluorophenyl)-4-methyl-1H-pyrazol-5-yl]amino}pyrimidin-4-yl)-3,5-dimethyl-1H-pyrazol-4-yl]ethanol]: 22 nM; `CCC(O)c1c(C)nn(-c2cc(Nc3c(C)c(-c4ccc(F)cc4)nn3CC3CC3)ncn2)c1C` (racemic) [Example 280, (±)-1-[1-(6-{[1-(cyclopropylmethyl)-3-(4-fluorophenyl)-4-methyl-1H-pyrazol-5-yl]amino}pyrimidin-4-yl)-3,5-dimethyl-1H-pyrazol-4-yl]propan-1-ol (Racemic)]: 16 nM.

As for `Cc1nn(-c2cc(Nc3c(C)c(-c4ccc(F)cc4)nn3CC3CC3)ncn2)c2c1C(C)(O)CC2` (racemic) [Example 283, (±)-1-(6-{[1-(cyclopropylmethyl)-3-(4-fluorophenyl)-4-methyl-1H-pyrazol-5-yl]amino}pyrimidin-4-yl)-3,4-dimethyl-1,4,5,6-tetrahydrocyclopenta[c]pyrazol-4-ol (Racemate)], the IC50 is 21 nM. This IC50 and that of the compound before are within 1.5-fold of each other. For `Cc1nn(-c2cc(Nc3c(C)c(-c4ccc(C#N)cc4)nn3CC3CC3)ncn2)c(C)c1C(C)(O)C(F)(F)F` (racemic) [Example 322, (±)-4-{1-(cyclopropylmethyl)-5-[(6-{3,5-dimethyl-4-[(2S)-1,1,1-trifluoro-2-hydroxypropan-2-yl]-1H-pyrazol-1-yl}pyrimidin-4-yl)amino]-4-methyl-1H-pyrazol-3-yl}benzonitrile (Racemate)] the value was 4 nM; for `Cc1cc(C)n(-c2cc(Nc3c(C)c(-c4ccc(F)cc4)nn3CC(C)(O)C3CC3)ncn2)n1` (racemic) [Example 325, (±)-2-cyclopropyl-1-[5-{[6-(3,5-dimethyl-1H-pyrazol-1-yl)pyrimidin-4-yl]amino}-3-(4-fluorophenyl)-4-methyl-1H-pyrazol-1-yl]propan-2-ol (Racemate)], 1100 nM. For `COC(C)c1c(C)nn(-c2cc(Nc3c(C)c(-c4ccc(F)cc4)nn3CC3CC3)ncn2)c1C` (racemic) [Example 326, (±)-N-[1-(cyclopropylmethyl)-3-(4-fluorophenyl)-4-methyl-1H-pyrazol-5-yl]-6-{4-[1-methoxyethyl]-3,5-dimethyl-1H-pyrazol-1-yl}pyrimidin-4-amine (Racemic)] the value was 4 nM; for `COc1c(-c2ccc(C#N)cc2)nn(CC2CC2)c1Nc1cc(-n2nc(C)c(C(C)O)c2C)ncn1` (racemic) [Example 331, (±)-4-{1-(cyclopropylmethyl)-5-[(6-{4-[(1S)-1-hydroxyethyl]-3,5-dimethyl-1H-pyrazol-1-yl}pyrimidin-4-yl)amino]-4-methoxy-1H-pyrazol-3-yl}benzonitrile], 2800 nM.

In turn, `COc1c(-c2ccc(C#N)cc2)nn(CC2CC2)c1Nc1cc(-n2nc(C)c(C(C)OC)c2C)ncn1` (racemic) [Example 333, (±)-4-{1-(cyclopropylmethyl)-4-methoxy-5-[(6-{4-[1-methoxyethyl]-3,5-dimethyl-1H-pyrazol-1-yl}pyrimidin-4-yl)amino]-1H-pyrazol-3-yl}benzonitrile] displayed an IC50 of 54 nM. For `COc1c(-c2ccc(F)cc2)nn(CC2CC2)c1Nc1cc(-n2nc(C)c(C(C)O)c2C)ncn1` (racemic) [Example 336, (±)-1-[1-(6-{[1-(cyclopropylmethyl)-3-(4-fluorophenyl)-4-methoxy-1H-pyrazol-5-yl]amino}pyrimidin-4-yl)-3,5-dimethyl-1H-pyrazol-4-yl]ethanol] the value was 1650 nM.

The compound `COC(C)c1c(C)nn(-c2cc(Nc3c(C)c(-c4ccc(C#N)cc4)nn3C)ncn2)c1C` (racemic) [Example 338, (±)-4-{5-[(6-{4-[1-methoxyethyl]-3,5-dimethyl-1H-pyrazol-1-yl}pyrimidin-4-yl)amino]-1,4-dimethyl-1H-pyrazol-3-yl}benzonitrile] showed an IC50 of 7 nM. Next, `Cc1nn(-c2cc(Nc3c(C)c(-c4ccc(C#N)cc4)nn3CC3CC3)ncn2)c(C)c1C(C)O` (racemic) [Example 341, (±)-4-{1-(cyclopropylmethyl)-5-[(6-{4-[1-hydroxyethyl]-3,5-dimethyl-1H-pyrazol-1-yl}pyrimidin-4-yl)amino]-4-methyl-1H-pyrazol-3-yl}benzonitrile]: 17 nM; `CCOC(C)c1c(C)nn(-c2cc(Nc3c(C)c(-c4ccc(C#N)cc4)nn3CC3CC3)ncn2)c1C` (racemic) [Example 342, (±)-4-{1-(cyclopropylmethyl)-5-[(6-{4-[1-ethoxyethyl]-3,5-dimethyl-1H-pyrazol-1-yl}pyrimidin-4-yl)amino]-4-methyl-1H-pyrazol-3-yl}benzonitrile]: 2 nM; `COC(C)c1c(C)nn(-c2cc(Nc3nn(C)c(-c4ccc(F)cc4)c3C)ncn2)c1C` (racemic) [Example 343, (±)-N-[5-(4-fluorophenyl)-1,4-dimethyl-1H-pyrazol-3-yl]-6-{4-[1-methoxyethyl]-3,5-dimethyl-1H-pyrazol-1-yl}pyrimidin-4-amine]: 6 nM.
